Test results published in patent US6403656B1, “Use of ppar-γ activators in dermatology” (Galderma Research & Development S.N.C, priority 1997, dated 2002).

Assays:
keratinocytes = assay: Determination of the keratinocyte proliferation (BrdU incorporation); settings: statement in words
PPARα = target: T1, PPARα (Homo sapiens, UniProt Q07869); assay: Transactivation test (luciferase reporter, cotransfected HeLa cells) via PPARα; settings: read-out: AC50 (nM) − PPARα; HeLa cells cotransfected with receptor expression vector and PPRE-luciferase reporter, treated for 24 hours
T1 sequence (Q07869 1-468): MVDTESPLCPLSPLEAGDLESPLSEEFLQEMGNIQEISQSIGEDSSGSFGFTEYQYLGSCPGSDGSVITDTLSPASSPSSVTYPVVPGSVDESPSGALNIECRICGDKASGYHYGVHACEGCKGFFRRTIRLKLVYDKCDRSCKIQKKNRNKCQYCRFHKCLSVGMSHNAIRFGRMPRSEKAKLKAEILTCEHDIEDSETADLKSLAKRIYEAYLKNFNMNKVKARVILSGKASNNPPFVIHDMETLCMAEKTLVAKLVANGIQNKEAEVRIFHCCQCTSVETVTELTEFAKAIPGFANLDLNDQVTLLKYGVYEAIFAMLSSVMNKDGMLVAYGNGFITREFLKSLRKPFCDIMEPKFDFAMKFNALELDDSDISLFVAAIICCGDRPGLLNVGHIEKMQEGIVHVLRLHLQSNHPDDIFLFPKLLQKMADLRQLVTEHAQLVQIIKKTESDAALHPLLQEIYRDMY

PPARγ = target: T2, PPARγ (Homo sapiens, UniProt P37231); assay: Transactivation test (luciferase reporter, cotransfected HeLa cells) via PPARγ
T2 sequence (P37231 1-505): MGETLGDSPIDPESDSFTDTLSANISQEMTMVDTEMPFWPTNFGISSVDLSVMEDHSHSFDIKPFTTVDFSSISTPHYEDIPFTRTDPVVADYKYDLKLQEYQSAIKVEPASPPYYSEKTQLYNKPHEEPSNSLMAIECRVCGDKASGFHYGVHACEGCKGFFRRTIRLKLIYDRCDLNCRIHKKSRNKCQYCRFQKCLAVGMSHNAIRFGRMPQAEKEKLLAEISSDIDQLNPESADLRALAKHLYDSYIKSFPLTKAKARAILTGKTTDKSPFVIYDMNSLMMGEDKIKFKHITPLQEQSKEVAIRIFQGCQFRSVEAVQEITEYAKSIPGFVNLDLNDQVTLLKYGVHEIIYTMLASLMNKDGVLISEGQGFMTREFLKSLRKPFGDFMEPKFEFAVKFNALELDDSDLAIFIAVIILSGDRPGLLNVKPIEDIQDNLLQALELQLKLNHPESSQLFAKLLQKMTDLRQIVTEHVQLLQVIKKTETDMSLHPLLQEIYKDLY

AC50 (PPARα) [nM] | R1 (ratio of AC50 relative to PPAR-γ over AC50 relative to PPARα) (PPARγ; AC50 PPARγ / AC50 PPARα) | AC50 (PPARγ; read-out: AC50 (nM) − PPARγ, HeLa cells cotransfected with receptor expression vector and PPRE-luciferase reporter, treated for 24 hours) [nM] | SMILES | inhibitory activity on the proliferation of keratinocytes (keratinocytes)
– | – | – | CN(CCOc1ccc(CC2SC(=O)NC2=O)cc1)c1ccccn1 (stereo not shown) [Compound A, 5-{4-[2-(methylpyrid-2-ylamino)-ethoxy]benzyl}thiazolidine-2,4-dione] | weak, or even no inhibitory activity
4600 | – | – | CCOC(Cc1ccc(OCCN(C)c2nc3ccccc3o2)cc1)C(=O)O (single isomer, unassigned; (+)) [Compound C, (+)-3-{4-[2-(benzoxazol-2-ylmethylamino)-ethoxy]phenyl}-2-ethyoxypropionic acid] | –
2200 | 0.082 | 180 | CCCCC/C=C/C=C1/C(=O)C=CC1C/C=C\CCCC(=O)O (stereo not shown) [Compound E, 15-deoxy-Δ^12,14-prostaglandin J2(15-d PGJ2)] | weak, or even no inhibitory activity
1450 | – | – | CCOC(Cc1ccc(OCCN(C)c2nc3ccccc3o2)cc1)C(=O)O (single isomer, unassigned; (-)) [Compound D, (−)-3-{4-[2-(benzooxazol-2-ylmethylamino)-ethoxy]phenyl}-2-ethyoxypropionic acid] | –
